Source: patent publication US20250092022A1, “MUSCARINIC RECEPTOR 4 ANTAGONISTS AND METHODS OF USE” (Neurocrine Biosciences, Inc., priority 2021, published 2025)

Each compound was assayed against human M4 receptor (Homo sapiens (Human), UniProt P08173) (assay: Binding assay: inhibition of radioligand (tritiated N-methylscopolamine) binding to membranes from CHO cells expressing human M4 receptor). Details: CHO cell membranes, 1.5 nM tritiated N-methylscopolamine.
Description: Binding affinity (Ki) for the compounds was measured by inhibition of radioligand binding to membranes from CHO cells expressing human M4 receptor. Membranes were prepared by nitrogen cavitation and differential centrifugation as previously described (Hoare et al., Mol. Pharmacol. 2003 March; 63(3): 751-65). The radioligand employed was tritiated N-methylscopolamine, used at a concentration of 1.5 nM. A dose-response of twelve concentrations of compound was used, ranging from […]. The assay buffer was 50 mM HEPES, 100 mM NaCl, 5 mM MgCl2, 1 mM ethylenediaminetetraacetic acid, pH-adjusted to pH 7.4. Membranes, radioligand and compound were incubated together for 90 minutes at 37° C., in a total volume of 150 μL in a 96-well plate. Receptor-bound radioligand was then collected by harvesting the assay over glass fiber filters pretreated with polyethylenimine to trap the cell membranes, using rapid vacuum filtration. Harvesting and radioactivity counting was conducted as previously described (see, e.g., Hoare et al., Mol. Pharmacol. 2003 63(3):751-65); Erratum at Mol. Pharmacol. 2005 July; 68(1): 260).

Sequence of human M4 receptor (P08173 whole entry): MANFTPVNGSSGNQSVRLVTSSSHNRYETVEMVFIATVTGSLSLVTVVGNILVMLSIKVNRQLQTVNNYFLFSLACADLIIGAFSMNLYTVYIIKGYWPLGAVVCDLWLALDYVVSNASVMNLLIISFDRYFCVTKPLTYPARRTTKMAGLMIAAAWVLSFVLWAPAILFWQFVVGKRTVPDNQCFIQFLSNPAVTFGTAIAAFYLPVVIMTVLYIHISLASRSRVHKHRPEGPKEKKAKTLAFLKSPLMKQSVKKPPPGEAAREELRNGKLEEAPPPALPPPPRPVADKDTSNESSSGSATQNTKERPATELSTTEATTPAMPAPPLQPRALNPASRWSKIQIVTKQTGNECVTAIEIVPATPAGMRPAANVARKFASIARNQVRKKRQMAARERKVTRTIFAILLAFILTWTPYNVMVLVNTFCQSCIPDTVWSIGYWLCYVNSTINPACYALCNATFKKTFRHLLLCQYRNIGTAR

Row | Structure (SMILES) | Ki [nM]
1 | C[C@@H]1CN(c2ncc(S(C)(=O)=O)cn2)[C@@H](C)CN1C(=O)OC1CC2(C1)CN(Cc1ccc(Cl)cc1)C2 [Compound 37, 2-[(4-chlorophenyl)methyl]-2-azaspiro[3.3] heptan-6-yl (2R,5S)-4-(5-methanesulfonylpyrimidin-2-yl)-2,5-dimethyl-piperazine-1-carboxylate] | < 100
2 | C[C@@H]1CN(c2ncc([S+](C)[O-])cn2)C[C@H](C)N1C(=O)OC1CC2(C1)CN(Cc1ccccc1)C2 (stereo partly drawn) [Compound 23, 2-benzyl-2-azaspiro [3.3]heptan-6-yl (2R,6S)-4-(5-methane-sulfinylpyrimidin-2-yl)-2,6-dimethylpiperazine-1-carboxylate] | 100 to 500
3 | CC(C)S(=O)(=O)c1cnc(N2C[C@@H](C)N(C(=O)OC3CC4(C3)CN(Cc3ccccc3)C4)[C@@H](C)C2)nc1 [Compound 42, 2-benzyl-2-azaspiro [3.3]heptan-6-yl (2R,6S)-2,6-dimethyl-4-[5-(propane-2-sulfonyl)pyrimidin-2-yl]piperazine-1-carboxylate] | 100 to 500
4 | C[C@@H]1CN(c2ncc(OCC(C)(C)O)cn2)C[C@H](C)N1C(=O)OC1CC2(C1)CN(Cc1ccccc1)C2 [Compound 59, 2-benzyl-2-azaspiro [3.3]heptan-6-yl (2R,6S)-4-[5-(2-hydroxy-2-methylpropoxy)pyrimidin-2-yl]-2,6-dimethyl-piperazine-1-carboxylate] | 100 to 500
5 | C[C@@H]1CN(c2ncc(OCC(O)C(F)F)cn2)C[C@H](C)N1C(=O)OC1CC2(C1)CN(Cc1ccccc1)C2 (stereo partly drawn) [Compound 54, 2-benzyl-2-azaspiro [3.3]heptan-6-yl (2R,6S)-4-[5-(3,3-difluoro-2-hydroxypropoxy)pyrimidin-2-yl]-2,6-dimethylpiperazine-1-carboxylate] | 100 to 500

Next, values leading:

Row | Ki [nM] | Structure (SMILES)
6 | 100 to 500 | C[C@@H]1CN(c2ncc(S(C)(=O)=O)cn2)CCN1C(=O)OC1CC2(C1)CN(Cc1ccccc1)C2 [Compound 13, 2-benzyl-2-azaspiro [3.3]heptan-6-yl (2R)-4-(5-methanesulfonyl-pyrimidin-2-yl)-2-methylpiperazine-1-carboxylate]
7 | < 100 | CCS(=O)(=O)c1cnc(N2C[C@@H](C)N(C(=O)NC3CC4(C3)CN(Cc3ccccc3)C4)C[C@@H]2C)nc1 [Compound 5, (2R,5S)-N-{2-benzyl-2-azaspiro[3.3]heptan-6-yl}-4-[5-(ethanesulfonyl)pyrimidin-2-yl]-2,5-dimethylpiperazine-1-carboxamide]
8 | < 100 | C[C@@H]1CN(c2ncc3c(n2)CS(=O)(=O)C3)C[C@H](C)N1C(=O)OC1CC2(C1)CN(Cc1ccccc1)C2 [Compound 43, 2-benzyl-2-azaspiro [3.3]heptan-6-yl (2R,6S)-4-dioxo-5H,7H-6λ^6-thieno [3,4-d]pyrimidin-2-yl}-2,6-dimethylpiperazine-1-carboxylate]
9 | < 100 | C[C@@H]1CN(c2ncc(S(C)(=O)=O)cn2)C[C@H](C)N1C(=O)OC1CC2(C1)CN(Cc1ccc(F)cc1)C2 [Compound 38, 2-[(4-fluorophenyl)methyl]-2-azaspiro[3.3] heptan-6-yl (2R,6S)-4-(5-methanesulfonylpyrimidin-2-yl)-2,6-dimethyl-piperazine-1-carboxylate]
10 | ≥ 500 | COc1cnc(N2C[C@@H](C)N(C(=O)OC3CC4(C3)CN(Cc3ccccc3)C4)[C@@H](C)C2)nc1 [Compound 45, 2-benzyl-2-azaspiro [3.3]heptan-2-yl (2R,6S)-4-(5-methoxypyrimidin-2-yl)-2,6-dimethyl-piperazine-1-carboxylate]
11 | < 100 | CC(C)S(=O)(=O)c1cnc(N2C[C@@H](C)N(C(=O)OC3CC4(C3)CN(Cc3ccccc3)C4)C[C@@H]2C)nc1 [Compound 26, 2-benzyl-2-azaspiro [3.3]heptan-6-yl (2R,5S)-2,5-dimethyl-4-[5-(propane-2-sulfonyl)pyrimidin-2-yl]piperazine-1-carboxylate]
